Data published in US20200069775A1, “BRAIN OSTEOCALCIN RECEPTOR AND COGNITIVE DISORDERS” (The Trustees of Columbia University in the City of New York, priority 2017, published 2020).

How the values were obtained:
[1] = system: 12 and 16 month-old WT mice; assay: Peripheral osteocalcin delivery by mini-pumps in aging WT mice, DLT, EPMT, MWMT, NOR; type: in vivo, mouse; conditions: 30 or 90 ng/h peripherally via mini-pumps for 60 days
Experimental: For plasma injection experiments, 100 μl of plasma were injected 8 times during 24 days, via tail vein. Each group described is represented individually in each panel. For osteocalcin delivery in WT mice, pumps (Alzet micro-osmotic pump, Model 1002) delivering osteocalcin (30 ng/hr for 12 month-old and 90 ng/hr for 16 month-old mice), or vehicle, were surgically installed subcutaneously in the back of mice. For alendronate delivery to 3 month-old mice, intraperitoneal injections (40 μg/kg) were performed twice a week for 6 weeks. During the last 4 weeks of treatment and during behavioral testing, half of the alendronate-treated mice received 60 ng/hr osteocalcin by osmotic pump. […]
Elevated plus maze test (EPMT): This test takes advantage of the aversion of rodents to open spaces. […] The total number of arm entries and time spent in open arms is recorded. […]
Light to dark transition test: This test is based on the innate aversion of rodents to brightly illuminated areas and on their spontaneous exploratory behavior in response to the stressor that light represents. […] Mice were tested for 6 min and […] were recorded: (i) latency to enter the lit compartment, (ii) time spent in this compartment, an index of the anxiety-related behavior and (iii) number of transitions between compartments, an index of anxiety-related behavior as well as exploratory activity. […]

[2] = system: Osteocalcin−/− embryos and adult offspring of Osteocalcin−/− mothers; assay: Osteocalcin injections in pregnant Osteocalcin−/− mothers, analysis of offspring; type: in vivo, mouse
Experimental: Osteocalcin−/−, Gprc6a−/−, Osteocalcin-mCherry, and Osteocalcin foxed mice have been previously described (Ducy et al., 1996, Nature 382:448-452; Oury et al., 2011, Cell 144:796-809). Mouse genotypes were determined by PCR. For all experiments, controls were littermate female WT, Cre-expressing, or flox/flox. All mice were maintained on a pure 129-Sv genetic background except for the inducible deletion Osteocalcin model (mix background: 25% C57/BL6 and 75% 129sv). For inducible gene deletion mice, tamoxifen was prepared in corn oil and injected intraperitoneally (IP) (1 mg/20g of body weight) over one week. For osteocalcin delivery to pregnant mice, IP injections (240 ng/day) were performed as soon as a plug was present daily until delivery (E0.5-E18.5). For osteocalcin or leptin infusion in adult Osteocalcin−/− or ob/ob mice, pumps (Alzet micro-osmotic pump, Model 1002) delivering osteocalcin (300 ng/hr), leptin (50 ng/hr), or vehicle were surgically installed subcutaneously in the backs of 3-month old mice. For the postnatal rescue of cognitive functions in Osteocalcin−/− mice, osteocalcin (10 ng/hour) or vehicle were delivered intrasubventricularly (icv) as previously described (Ducy et al., 2000, Cell 100:197-207). Leptin and osteocalcin content in sera and tissues were determined by ELISA.
Cresyl violet staining to visualize brain morphology was carried out by incubating 20 μm cryosections defatted with 1:1 chloroform:ethanol in cresyl violet acetate (1 g/L) overnight. The stain was differentiated using ethanol and xylene and mounted using DPX mounting medium for histology (Sigma).
To assess apoptosis in WT and Osteocalcin−/− brains, 20 μm cryostat sections were processed using theAPOPTAG® Fluorescein Direct In Situ Apoptosis Detection Kit (Millipore) according to manufacturer's protocol. Images were obtained using Leica DM 4000B, and Image J was used to quantify cell number and intensity of staining.
For western blotting, frozen hippocampi from E18.5 embryos were lysed and homogenized in 250 μl tissue lysis buffer (25 mM Tris HCl 7.5; 100 mM NaF; 10 mM Na4P2O7; 10 mmM EDTA; 1% NP 40). Samples were pooled together in threes by genotype to reduce variability. Proteins were transferred to nitrocellulose membranes and blocked with TBST-5% milk prior to overnight incubation with primary antibody in TBST-5% BSA. HRP-coupled secondary antibodies and ECL were used to visualize the signal.
To further evaluate the importance of maternal osteocalcin for the acquisition of spatial learning and memory in adult offspring, pregnant Osteocalcin^−/− mothers from E0.5 to E18.5 were treated with injections, once a day, of osteocalcin (240 ng/day). Osteocalcin was never injected in these females or their pups after delivery. […] Likewise, the number of apoptotic cells was reduced and the number of NeuN positive cells was increased compared to Osteocalcin^−/− embryos originating from Osteocalcin^−/− mothers that were not injected (FIG. 7I-J).

[3] = Osteocalcin−/− embryos, injected vs not injected Osteocalcin−/− mothers
[4] = mothers injected 240 ng/day once a day E0.5 to E18.5

osteocalcin: Recombinant osteocalcin bacterially produced, cleaved from the GST subunit; completely undercarboxylated at all three sites; full-length mouse osteocalcin (YLGASVPSPDPLEPTREQCELNPACDELSDQYGLKTAYKRIYGITI)
memory (MWMT and NOR) ([1]; 12- and 16-month-old WT mice): memory was significantly improved
exploratory and anxiety-like behavior (DLT or EPMT) ([1]; 12 and 16 month-old WT mice): better exploratory behavior and decreased anxiety-like behavior
Caspase-3 cleaved protein level in the hippocampus (Western blot) ([2]; Osteocalcin−/− E18.5 embryos, injected vs not injected mothers): decrease in Caspase-3 cleaved protein level
number of NeuN positive cells [2, 3]: increased
number of apoptotic cells [2, 3]: reduced
number of apoptotic cells ([2]; Osteocalcin−/− embryos, injected vs not injected Osteocalcin−/− mothers, listed as Uncarboxylated osteocalcin): prevent this neuronal apoptosis
thickness defect in the CA3 and CA4 regions of the hippocampus ([2]; adult Osteocalcin−/− originating from Osteocalcin−/− mothers): rescue of the thickness defect
cerebral ventricle enlargement (cresyl violet) ([2]; brains of E18.5 Osteocalcin−/− embryos, injected mothers): rescue of the cerebral ventricle enlargement
anxiety or depression phenotypes of Osteocalcin−/− offspring [2, 4]: did not have any beneficial effect
deficit in learning and memory of Osteocalcin−/− offspring [2, 4]: rescued over two third of their deficit
